Measured values: patent publication US5326764A, “Method for the treatment of hyperproliferative disorders” (Yale University, priority 1993, dated 1994)

System: human neonatal foreskin keratinocytes
Assay: Keratinocyte growth by cell counting after seven days
Type: cell-based
Details: 168 h

Structure (SMILES): O=c1[nH]cc(F)c(=O)[nH]1 [5-fluorouracil]
- inhibition at 0.5 µM (read-out: inhibition of cell growth): 30%

Structure (SMILES): CN(Cc1cnc2nc(N)nc(N)c2n1)c1ccc(C(=O)N[C@@H](CCC(=O)O)C(=O)O)cc1 [methotrexate]
- inhibition at 0.1 µM (read-out: inhibition of growth of keratinocytes): 32%
